Assay results published in ChEMBL document CHEMBL5370535, “Thiazolyl hydrazineylidenyl indolones as unique potential multitargeting broad-spectrum antimicrobial agents” (Eur J Med Chem, 2023).
≈ marks a conversion by molar mass, not a printed value. Calls of active or inactive are those of the source. The rule behind the calls is not given here.

Assays:
Klebsiella pneumoniae = test: Antibacterial activity against Klebsiella pneumoniae assessed as bacterial growth inhibition incubated for 24 hrs by CLSI based two serial dilution assay; type: functional
Calf thymus DNA [1] = test: Competitive binding affinity to calf thymus DNA assessed as compound-DNA complex formation upto 2 10^-5mol/L in presence of neutral red by UV/vis spectrophotometric analysis; type: nucleic-acid assay; conditions: Bos taurus
Staphylococcus aureus [2] = test: Antibiofilm activity against methicillin-resistant Staphylococcus aureus assessed as inhibition of biofilm formation at 4 microg/ml incubated for 24 hrs by crystal violet staining based assay; type: functional; parameters: scale not given: the % may be the effect or the level left; conditions: dose 4 µg/ml
Candida parapsilosis = test: Antifungal activity against Candida parapsilosis ATCC 22019 assessed as inhibition of fungal growth incubated for 24 hrs by CLSI based two serial dilution assay; type: functional; conditions: Lodderomyces parapsilosis
Calf thymus DNA [3] = test: Binding affinity to calf thymus DNA by UV/vis spectrophotometric analysis; type: nucleic-acid assay; conditions: Bos taurus; dose 4.0 10^-5mol/L
Acinetobacter baumannii = test: Antibacterial activity against Acinetobacter baumannii assessed as bacterial growth inhibition incubated for 24 hrs by CLSI based two serial dilution assay; type: functional
Staphylococcus aureus [4] = test: Bactericidal activity against methicillin-resistant Staphylococcus aureus assessed as increase in apoptotic cells at 4 times MIC by fluorescence microscopic analysis; type: functional, organism-based; conditions: time <= 250.0 min
Candida albicans [5] = test: Antifungal activity against Candida albicans ATCC 90023 assessed as inhibition of fungal growth incubated for 24 hrs by CLSI based two serial dilution assay; type: functional
Staphylococcus aureus [6] = test: Bactericidal activity against methicillin-resistant Staphylococcus aureus assessed as reduction in viable bacteria at 4 times MIC measured at 30 mins by fluorescence microscopic analysis; type: functional, organism-based
Staphylococcus aureus [7] = test: Antibacterial activity against Staphylococcus aureus 29213 assessed as bacterial growth inhibition incubated for 24 hrs by CLSI based two serial dilution assay; type: functional
Aspergillus fumigatus = test: Antifungal activity against Aspergillus fumigatus assessed as inhibition of fungal growth incubated for 24 hrs by CLSI based two serial dilution assay; type: functional
[8] = Cytotoxicity against human BEAS-2B cells assessed as survival rate at 0.5 to 64 microg/ml incubated for 24 hrs by MTT assay; type: toxicity, cell-based; conditions: at 0.5 to 64 µg/mL, dose 0.5-64 µg/ml, read-out: Activity
Staphylococcus aureus [9] = test: Antibacterial activity against methicillin-resistant Staphylococcus aureus assessed as bacterial growth inhibition incubated for 24 hrs by CLSI based two serial dilution assay; type: functional
Cell membrane [10] = test: Induction of membrane depolarization in methicillin-resistant Staphylococcus aureus assessed as increase in fluorescence intensity at 4 times MIC measured at 5 min by DiSC35 dye-based fluorescence assay; type: subcellular
Staphylococcus aureus [11] = test: Antibacterial activity against Staphylococcus aureus assessed as bacterial growth inhibition incubated for 24 hrs by CLSI based two serial dilution assay; type: functional
Cell membrane [12] = test: Induction of cell membrane disruption in methicillin-resistant Staphylococcus aureus assessed as increase in protein leakage at 16 microg/ml incubated for 8 hrs; type: subcellular; conditions: dose 16.0 µg/ml
Staphylococcus aureus [13] = test: Antibiofilm activity against methicillin-resistant Staphylococcus aureus assessed as decrease in metabolic activity at 1 to 16 microg/ml measured for 6 hrs by alamar blue staining based assay; type: functional, organism-based; conditions: dose 1-16 µg/ml
Escherichia coli [14] = test: Antibacterial activity against Escherichia coli 25922 assessed as bacterial growth inhibition incubated for 24 hrs by CLSI based two serial dilution assay; type: functional
Pseudomonas aeruginosa [15] = test: Antibacterial activity against Pseudomonas aeruginosa assessed as bacterial growth inhibition incubated for 24 hrs by CLSI based two serial dilution assay; type: functional
Staphylococcus aureus [16] = test: Induction of morphological changes in methicillin-resistant Staphylococcus aureus assessed as cracking of cells at 4 times MIC incubated for 4 hrs by scanning electron microscopic analysis; type: functional, organism-based
Staphylococcus aureus [17] = test: Induction of morphological changes in methicillin-resistant Staphylococcus aureus assessed as membrane deformations at 4 times MIC incubated for 4 hrs by scanning electron microscopic analysis; type: functional, organism-based
Calf thymus DNA [18] = test: Binding affinity to calf thymus DNA assessed as compound-DNA complex formation at 4 10^-5mol/L by UV/vis spectrophotometric analysis; type: nucleic-acid assay; conditions: Bos taurus
Candida tropicalis = test: Antifungal activity against Candida tropicalis assessed as inhibition of fungal growth incubated for 24 hrs by CLSI based two serial dilution assay; type: functional
Enterococcus faecalis = test: Antibacterial activity against Enterococcus faecalis assessed as bacterial growth inhibition incubated for 24 hrs by CLSI based two serial dilution assay; type: functional
Staphylococcus aureus [19] = test: Antibiofilm activity against methicillin-resistant Staphylococcus aureus assessed as biofilm eradication incubated for 24 hrs by crystal violet staining based assay; type: functional, organism-based; conditions: dose 1-16 µg/ml
Pseudomonas aeruginosa [20] = test: Antibacterial activity against Pseudomonas aeruginosa ATCC 27853 assessed as bacterial growth inhibition incubated for 24 hrs by CLSI based two serial dilution assay; type: functional
[21] = Hemolytic activity in human RBC assessed as hemolysis at 64 microg/ml incubated for 2 hrs by double-dilution analysis; type: toxicity, cell-based, Erythrocyte; conditions: red blood cells (erythrocytes), at 64 µg/mL, read-out: Activity
Candida albicans [22] = test: Antifungal activity against Candida albicans assessed as inhibition of fungal growth incubated for 24 hrs by CLSI based two serial dilution assay; type: functional
Cell membrane [23] = test: Induction of cell membrane permeability in Staphylococcus aureus assessed as increase in fluorescence intensity measured upto 135 mins by propidium iodide staining based fluorescence assay; type: subcellular
Cell membrane [24] = test: Induction of membrane depolarization in methicillin-resistant Staphylococcus aureus assessed as increase in fluorescence intensity at 1 times MIC by DiSC35 dye-based fluorescence assay; type: subcellular; conditions: time 1.0 hrs, TDE = time-dependent effect
Staphylococcus aureus [25] = test: Bactericidal activity against methicillin-resistant Staphylococcus aureus assessed as increase in apoptotic cells by measuring red fluorescence intensity at 4 times MIC measured upto 250 min by fluorescence microscopic analysis; type: functional, organism-based
Escherichia coli [26] = test: Antibacterial activity against Escherichia coli assessed as bacterial growth inhibition incubated for 24 hrs by CLSI based two serial dilution assay; type: functional
Staphylococcus aureus [27] = test: Antibacterial activity against Staphylococcus aureus 25923 assessed as bacterial growth inhibition incubated for 24 hrs by CLSI based two serial dilution assay; type: functional

CCCCN1C(=O)/C(=N\Nc2nccs2)c2ccccc21
MIC (Klebsiella pneumoniae): 0.25 µM (≈ 0.0751 µg/mL)
Activity (Calf thymus DNA [1]): Active
Activity (Staphylococcus aureus [2]): 30%
MIC (Candida parapsilosis): 0.5 µM (≈ 0.15 µg/mL)
Activity (Calf thymus DNA [3]): Dose-Dependent Effect
MIC (Acinetobacter baumannii): 1 µM (≈ 0.3 µg/mL)
Activity (Staphylococcus aureus [4]): Active
MIC (Candida albicans [5]): 0.5 µM (≈ 0.15 µg/mL)
Activity (Staphylococcus aureus [6]): Active
MIC (Staphylococcus aureus [7]): 0.25 µM (≈ 0.0751 µg/mL)
MIC (Aspergillus fumigatus): 1 µM (≈ 0.3 µg/mL)
viability at 24 h [8]: > 75%
MIC (Staphylococcus aureus [9]): 0.25 µM (≈ 0.0751 µg/mL)
Activity (Cell membrane [10]): Active
MIC (Staphylococcus aureus [11]): 0.5 µM (≈ 0.15 µg/mL)
Activity (Cell membrane [12]): Active
Activity (Staphylococcus aureus [13]): Active
MIC (Escherichia coli [14]): 0.25 µM (≈ 0.0751 µg/mL)
MIC (Pseudomonas aeruginosa [15]): 0.5 µM (≈ 0.15 µg/mL)
Activity (Staphylococcus aureus [16]): Active
Activity (Staphylococcus aureus [17]): Active
Activity (Calf thymus DNA [18]): Active
MIC (Candida tropicalis): 0.5 µM (≈ 0.15 µg/mL)
MIC (Enterococcus faecalis): 0.5 µM (≈ 0.15 µg/mL)
Activity (Staphylococcus aureus [19]): Dose-Dependent Effect
MIC (Pseudomonas aeruginosa [20]): 0.5 µM (≈ 0.15 µg/mL)
hemolysis at 2 h, 64 µg/mL [21]: < 5%
MIC (Candida albicans [22]): 0.5 µM (≈ 0.15 µg/mL)
Activity (Cell membrane [23]): Active
Activity (Cell membrane [24]): Tde
Activity (Staphylococcus aureus [25]): inactive
MIC (Escherichia coli [26]): 0.5 µM (≈ 0.15 µg/mL)
MIC (Staphylococcus aureus [27]): 0.25 µM (≈ 0.0751 µg/mL)
